Assay [1] addresses T1, Kappa-type opioid receptor (Homo sapiens, UniProt P41145). Briefly: SAR analysis of small molecule agonists of the kappa opioid receptor via a luminescent beta-arrestin assay - Set 3. [Related pubchem assays (depositor defined):AID1777, AID1785, AID1786, AID1966, AID2133, AID2136, AID2284, AID2500]. It counts as functional.
Assay [2] addresses T1, Kappa-type opioid receptor. Briefly: KOR agonist analogs, arrestin-GFP redistribution, SAR follow-up, imaging, image-based, set 3 (AID 488833). It counts as functional.
Assay [3] has as its target Delta-type opioid receptor (Homo sapiens, UniProt P41143). Briefly: SAR Analysis of Agonists of the DOR Receptor using an Image-Based Assay - Set 3. [Related pubchem assays (depositor defined):AID1777, AID1786]. It counts as functional.
Assay [4] concerns the target Mu-type opioid receptor (Homo sapiens, UniProt P35372). Briefly: SAR Analysis of Agonists of the MOR Receptor using an Image-Based Assay - Set 3. [Related pubchem assays (depositor defined):AID1777, AID1785, AID1786, AID1966, AID2133, AID2136, AID2284, AID2285, AID2352]. It counts as functional.
The target in assay [5] is Sphingosine 1-phosphate receptor 2 (Homo sapiens, UniProt O95136). Briefly: Late-stage fluorescence-based dose-response cell-based assay to identify agonists of the Sphingosine 1-Phosphate Receptor 4 (S1P4): Sphingosine 1-Phosphate Receptor 2 (S1P2) counterscreen assay. [Related pubchem assays (depositor defined):AID1509, AID1523, AID1563, AID1686, AID1701, AID1801, AID463107, AID463225, AID504400]. Format: functional. (A counterscreen serves to expose hits that act by an unwanted route or on another target.)

Assay [6] concerns the target Sphingosine 1-phosphate receptor 3 (Homo sapiens, UniProt Q99500). Briefly: Late-stage fluorescence-based dose-response cell-based assay to identify agonists of the Sphingosine 1-Phosphate Receptor 4 (S1P4): Sphingosine 1-Phosphate Receptor 3 (S1P3) counterscreen assay. [Related pubchem assays (depositor defined):AID1509, AID1523, AID1563, AID1686, AID1701, AID1801, AID463107, AID463225, AID504400]. Format: functional.

Assay [7] concerns the target Sphingosine 1-phosphate receptor 1 (Homo sapiens, UniProt P21453). Briefly: Late-stage fluorescence-based dose-response cell-based assay to identify agonists of the Sphingosine 1-Phosphate Receptor 4 (S1P4): Sphingosine 1-Phosphate Receptor 1 (S1P1) counterscreen assay. [Related pubchem assays (depositor defined):AID1509, AID1523, AID1563, AID1686, AID1701, AID1801, AID463107, AID463225, AID504400]. It counts as functional.

In assay [8] the target is Sphingosine 1-phosphate receptor 5 (Homo sapiens, UniProt Q9H228). Briefly: Late-stage fluorescence-based dose-response cell-based assay to identify agonists of the Sphingosine 1-Phosphate Receptor 4 (S1P4): Sphingosine 1-Phosphate Receptor 5 (S1P5) counterscreen assay. [Related pubchem assays (depositor defined):AID1509, AID1523, AID1563, AID1686, AID1701, AID1801, AID463107, AID463225, AID504400]. Format: functional.

Assay [9] has as its target T2, Sphingosine 1-phosphate receptor 4 (Homo sapiens, UniProt O95977).
T2 sequence (O95977 whole entry): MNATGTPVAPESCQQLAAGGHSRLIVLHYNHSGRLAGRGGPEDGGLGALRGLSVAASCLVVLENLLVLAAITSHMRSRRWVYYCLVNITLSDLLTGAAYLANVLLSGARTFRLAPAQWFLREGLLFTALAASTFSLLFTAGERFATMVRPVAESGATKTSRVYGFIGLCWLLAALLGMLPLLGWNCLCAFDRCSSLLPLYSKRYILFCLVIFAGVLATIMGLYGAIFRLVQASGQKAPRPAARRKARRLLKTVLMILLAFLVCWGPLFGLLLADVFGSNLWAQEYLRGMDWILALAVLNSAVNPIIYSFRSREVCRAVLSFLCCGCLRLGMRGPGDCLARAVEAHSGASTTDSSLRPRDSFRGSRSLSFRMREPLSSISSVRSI
Briefly: S1P4 receptor agonists, human, late-stage follow-up, cell-based, fluorescence, synthesized compounds (AID 463107). It counts as functional.

Assay [10] has as its target Peroxisome proliferator-activated receptor alpha (Homo sapiens, UniProt Q07869). Briefly: Late stage assay provider counterscreen for partial agonists of the peroxisome proliferator-activated receptor gamma (PPARg): Luminescence-based cell-based dose response assay for partial agonists of the peroxisome proliferator-activated receptor alpha (PPARA). [Related pubchem assays (depositor defined):AID1051, AID1300, AID1319, AID1679, AID1808, AID504446, AID504447, AID504452, AID504453, AID631]. It counts as functional.

The target in assay [11] is T3, Peroxisome proliferator-activated receptor gamma (Homo sapiens, UniProt P37231). Briefly: PPARg ligand-binding domain binders, dose response, PPARg partial agonist project, biochemical, TR-FRET, LanthaScreen (AID 504446). In general terms: Time-resolved FRET reads energy transfer from a long-lived donor to a nearby acceptor.
Assay [12] addresses T3, Peroxisome proliferator-activated receptor gamma. Briefly: PPARg partial agonists, dose response, cell-based, luminescence, assay provider (AID 504447). It counts as functional.
Assay [13] deals with T4, DNA dC->dU-editing enzyme APOBEC-3A (Homo sapiens, UniProt P31941). Briefly: SAR analysis of small molecule inhibitors of APOBEC3A DNA Deaminase via a fluorescence-based single-stranded DNA deaminase assay - Set 2. Particulars: read-out: IC50_Mean. It counts as functional.
For assay [14], the target named is T4, DNA dC->dU-editing enzyme APOBEC-3A. Briefly: SAR analysis of small molecule inhibitors of APOBEC3A DNA Deaminase via a fluorescence-based single-stranded DNA deaminase assay. Format: functional. The settings on record: read-out: IC50_Mean.
Assay [15] concerns the target T5, DNA dC->dU-editing enzyme APOBEC-3G (Homo sapiens, UniProt Q9HC16). Briefly: SAR analysis of small molecule inhibitors of APOBEC3G DNA Deaminase via a fluorescence-based single-stranded DNA deaminase assay - Set 2. It counts as functional. Particulars: read-out: IC50_Mean.
In assay [16] the target is Induced myeloid leukemia cell differentiation protein Mcl-1 (Homo sapiens, UniProt Q07820). It counts as functional.
For assay [17], the target named is Intestinal-type alkaline phosphatase (Homo sapiens, UniProt P09923). Briefly: activation of human intestinal alkaline phosphatase – biochemical, dose response (AID 488873). It counts as functional.
Assay [18] addresses T6, Intestinal-type alkaline phosphatase (Mus musculus, UniProt P24822). Briefly: mouse intestinal alkaline phosphatase activators, dose response, biochemical, luminescence, uHTS hits (AID 488783). It counts as functional.
The target of assay [19] is Large T antigen (Simian virus 40, UniProt P03070). It counts as functional, Betapolyomavirus macacae.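 Further: Confirmatory-stage PubChem screen for compounds that inhibit SV40 T antigen.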
The target of assay [20] is T7, Alkaline phosphatase, tissue-nonspecific isozyme (Homo sapiens, UniProt P05186).
T7 sequence (P05186 whole entry): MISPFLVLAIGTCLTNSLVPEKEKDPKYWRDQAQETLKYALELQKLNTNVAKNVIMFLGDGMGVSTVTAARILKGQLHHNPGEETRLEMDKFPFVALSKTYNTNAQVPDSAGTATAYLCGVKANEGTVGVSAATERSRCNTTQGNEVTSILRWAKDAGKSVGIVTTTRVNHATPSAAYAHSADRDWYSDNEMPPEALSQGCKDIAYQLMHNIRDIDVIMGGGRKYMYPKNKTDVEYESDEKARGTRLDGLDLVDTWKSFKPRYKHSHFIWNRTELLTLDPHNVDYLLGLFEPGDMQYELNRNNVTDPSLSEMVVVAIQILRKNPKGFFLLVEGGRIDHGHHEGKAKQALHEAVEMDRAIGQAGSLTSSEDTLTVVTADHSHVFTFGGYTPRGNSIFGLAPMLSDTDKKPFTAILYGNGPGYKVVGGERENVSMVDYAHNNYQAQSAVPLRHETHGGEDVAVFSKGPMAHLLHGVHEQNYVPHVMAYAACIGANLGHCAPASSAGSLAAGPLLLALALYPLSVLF
Briefly: TNAP enzyme activators, dose response, selectivity assay for mouse IAP activator project, biochemical, TNAP isozyme, mouse IAP uHTS hits (AID 488880). Format: functional.

Assay [21] concerns the target T5, DNA dC->dU-editing enzyme APOBEC-3G. Briefly: APOBEC3G deaminase inhibitors, SAR follow-up, biochemical, fluorescence, single-stranded DNA substrate (AID 602136). Format: functional. The settings on record: read-out: IC50_Mean.
In assay [22] the target is T8, Zinc finger protein mex-5 (Caenorhabditis elegans, UniProt Q9XUB2).
T8 sequence (Q9XUB2 whole entry): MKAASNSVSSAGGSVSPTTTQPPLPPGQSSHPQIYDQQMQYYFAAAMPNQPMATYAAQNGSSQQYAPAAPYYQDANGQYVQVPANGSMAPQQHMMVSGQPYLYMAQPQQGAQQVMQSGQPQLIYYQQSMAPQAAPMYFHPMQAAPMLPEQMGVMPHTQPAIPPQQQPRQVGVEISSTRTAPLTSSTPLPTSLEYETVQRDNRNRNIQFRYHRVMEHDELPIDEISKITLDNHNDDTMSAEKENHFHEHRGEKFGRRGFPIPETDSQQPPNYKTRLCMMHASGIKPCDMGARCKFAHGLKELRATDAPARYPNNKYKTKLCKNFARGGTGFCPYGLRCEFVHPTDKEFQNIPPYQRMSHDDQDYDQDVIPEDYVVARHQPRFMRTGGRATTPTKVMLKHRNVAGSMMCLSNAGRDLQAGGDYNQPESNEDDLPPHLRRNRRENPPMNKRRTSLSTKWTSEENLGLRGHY
Briefly: MEX-5/TCR-2 RNA interaction inhibitors, dose response, biochemical, C. elegans, fluorescence polarization (AID 1960). For orientation: In fluorescence polarisation assays a small probe gives low polarisation when free and higher when bound to something large.

The target in assay [23] is T6, Intestinal-type alkaline phosphatase. Briefly: PubChem AID 488785. It counts as functional.
Assay [24] addresses T7, Alkaline phosphatase, tissue-nonspecific isozyme. Briefly: TNAP enzyme inhibition by screening hits, dose response, selectivity assay for mouse IAP inhibitor project, biochemical, human TNAP, uHTS hits (AID 488906). It counts as functional.
Assay [25] addresses T9, RNA-binding protein pos-1 (Caenorhabditis elegans, UniProt G5EF15).
T9 sequence (G5EF15 whole entry): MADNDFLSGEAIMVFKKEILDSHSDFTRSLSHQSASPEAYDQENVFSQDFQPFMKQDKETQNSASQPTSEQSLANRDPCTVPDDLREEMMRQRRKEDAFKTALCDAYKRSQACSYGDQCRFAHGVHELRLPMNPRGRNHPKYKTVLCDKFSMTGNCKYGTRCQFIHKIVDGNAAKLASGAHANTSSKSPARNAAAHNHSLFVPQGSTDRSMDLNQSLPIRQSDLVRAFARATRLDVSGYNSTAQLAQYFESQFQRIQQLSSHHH
Briefly: inhibitors of POS-1/mex-3 RNA binding, dose response, biochemical, fluorescence polarization (AID 1964).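 Further: purified POS-1 fused to maltose binding protein made in E. coli; potency of compounds blocking POS-1 binding to fluorescent RNA.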

The source made the active and inactive calls. Bounds are passed on as bounds.

As a reminder, the EC50 is the concentration that produces a half-maximal response.

T3 sequence (P37231 whole entry, the tested form may be a part): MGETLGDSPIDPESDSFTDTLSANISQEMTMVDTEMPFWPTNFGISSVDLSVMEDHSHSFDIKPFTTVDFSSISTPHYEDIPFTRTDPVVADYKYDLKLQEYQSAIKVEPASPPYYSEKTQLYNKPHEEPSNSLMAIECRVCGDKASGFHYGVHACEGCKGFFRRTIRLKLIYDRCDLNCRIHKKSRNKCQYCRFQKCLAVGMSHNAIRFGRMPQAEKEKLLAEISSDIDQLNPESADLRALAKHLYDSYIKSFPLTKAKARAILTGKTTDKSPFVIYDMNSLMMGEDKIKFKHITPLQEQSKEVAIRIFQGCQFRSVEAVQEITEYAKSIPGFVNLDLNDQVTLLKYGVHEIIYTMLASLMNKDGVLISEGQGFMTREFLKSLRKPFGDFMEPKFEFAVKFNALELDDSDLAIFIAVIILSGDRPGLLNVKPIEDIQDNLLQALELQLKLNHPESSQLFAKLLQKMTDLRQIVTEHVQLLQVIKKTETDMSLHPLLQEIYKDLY
T1 sequence (P41145 whole entry): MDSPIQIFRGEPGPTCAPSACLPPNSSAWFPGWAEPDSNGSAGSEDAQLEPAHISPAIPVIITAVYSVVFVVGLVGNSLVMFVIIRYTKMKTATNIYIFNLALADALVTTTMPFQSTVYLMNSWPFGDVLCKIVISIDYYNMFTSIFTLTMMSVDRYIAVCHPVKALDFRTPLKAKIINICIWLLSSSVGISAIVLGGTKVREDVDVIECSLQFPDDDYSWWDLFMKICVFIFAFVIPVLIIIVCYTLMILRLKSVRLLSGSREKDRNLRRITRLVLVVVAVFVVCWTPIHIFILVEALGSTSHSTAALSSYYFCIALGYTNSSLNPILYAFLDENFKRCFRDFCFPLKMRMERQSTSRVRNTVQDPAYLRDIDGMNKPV
T5 sequence (Q9HC16 whole entry): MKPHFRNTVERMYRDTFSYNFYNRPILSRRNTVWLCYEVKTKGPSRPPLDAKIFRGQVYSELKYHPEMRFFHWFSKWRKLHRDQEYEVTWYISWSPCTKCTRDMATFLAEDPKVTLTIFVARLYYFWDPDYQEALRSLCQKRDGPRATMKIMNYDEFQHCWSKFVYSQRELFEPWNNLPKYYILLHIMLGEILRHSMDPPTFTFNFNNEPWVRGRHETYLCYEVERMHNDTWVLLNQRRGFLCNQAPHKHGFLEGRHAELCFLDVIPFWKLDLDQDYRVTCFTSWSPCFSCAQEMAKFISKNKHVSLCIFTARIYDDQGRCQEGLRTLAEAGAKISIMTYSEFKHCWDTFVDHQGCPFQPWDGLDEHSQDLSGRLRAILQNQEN
T4 sequence (P31941 whole entry): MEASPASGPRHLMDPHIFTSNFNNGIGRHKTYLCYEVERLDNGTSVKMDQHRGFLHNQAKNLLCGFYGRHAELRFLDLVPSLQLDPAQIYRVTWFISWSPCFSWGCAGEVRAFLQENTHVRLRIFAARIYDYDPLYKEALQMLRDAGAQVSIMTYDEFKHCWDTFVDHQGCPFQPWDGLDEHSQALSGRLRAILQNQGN
T6 sequence (P24822 whole entry): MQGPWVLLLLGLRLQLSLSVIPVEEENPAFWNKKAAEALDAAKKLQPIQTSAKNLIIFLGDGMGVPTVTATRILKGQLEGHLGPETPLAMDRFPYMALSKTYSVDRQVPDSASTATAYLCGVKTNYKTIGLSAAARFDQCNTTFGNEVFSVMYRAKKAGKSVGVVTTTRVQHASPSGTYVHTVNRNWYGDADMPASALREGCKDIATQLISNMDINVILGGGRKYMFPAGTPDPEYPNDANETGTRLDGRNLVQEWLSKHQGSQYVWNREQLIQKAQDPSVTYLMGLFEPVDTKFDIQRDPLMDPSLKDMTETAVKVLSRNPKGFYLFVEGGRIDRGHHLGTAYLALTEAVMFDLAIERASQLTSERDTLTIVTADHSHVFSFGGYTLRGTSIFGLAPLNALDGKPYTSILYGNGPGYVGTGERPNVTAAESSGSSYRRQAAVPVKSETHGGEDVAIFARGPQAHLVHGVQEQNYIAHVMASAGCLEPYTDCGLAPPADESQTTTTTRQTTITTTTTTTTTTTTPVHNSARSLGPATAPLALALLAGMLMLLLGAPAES
Intestinal-type alkaline phosphatase (Homo sapiens, UniProt P09923), sequence (P09923 whole entry): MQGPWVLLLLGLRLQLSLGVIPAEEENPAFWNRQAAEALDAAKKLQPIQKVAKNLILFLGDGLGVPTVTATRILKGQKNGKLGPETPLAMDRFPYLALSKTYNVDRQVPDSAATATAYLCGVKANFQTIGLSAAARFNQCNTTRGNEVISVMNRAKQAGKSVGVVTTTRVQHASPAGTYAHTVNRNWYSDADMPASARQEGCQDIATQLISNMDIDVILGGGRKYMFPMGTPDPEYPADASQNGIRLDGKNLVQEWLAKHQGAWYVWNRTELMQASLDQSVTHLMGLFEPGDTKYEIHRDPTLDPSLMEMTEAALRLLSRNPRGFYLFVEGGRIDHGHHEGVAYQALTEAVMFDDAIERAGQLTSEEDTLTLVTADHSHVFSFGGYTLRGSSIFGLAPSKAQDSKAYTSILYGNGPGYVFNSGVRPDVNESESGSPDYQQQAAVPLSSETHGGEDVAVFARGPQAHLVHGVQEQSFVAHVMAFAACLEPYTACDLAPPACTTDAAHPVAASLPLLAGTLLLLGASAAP
Peroxisome proliferator-activated receptor alpha, sequence (Q07869 whole entry): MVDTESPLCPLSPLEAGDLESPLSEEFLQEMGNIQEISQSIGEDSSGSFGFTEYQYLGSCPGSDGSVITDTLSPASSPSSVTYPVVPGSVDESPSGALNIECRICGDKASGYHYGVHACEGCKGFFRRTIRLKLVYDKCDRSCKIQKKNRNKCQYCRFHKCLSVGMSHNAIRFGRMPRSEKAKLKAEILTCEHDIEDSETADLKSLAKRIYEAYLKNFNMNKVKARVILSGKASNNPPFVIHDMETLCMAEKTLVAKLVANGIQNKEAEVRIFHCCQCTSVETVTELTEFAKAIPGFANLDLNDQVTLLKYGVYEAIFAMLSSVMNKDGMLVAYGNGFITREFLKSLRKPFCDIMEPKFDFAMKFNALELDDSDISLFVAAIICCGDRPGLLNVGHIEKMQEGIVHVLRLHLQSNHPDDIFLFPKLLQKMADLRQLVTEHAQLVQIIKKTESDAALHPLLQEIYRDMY
Large T antigen, sequence (P03070 whole entry): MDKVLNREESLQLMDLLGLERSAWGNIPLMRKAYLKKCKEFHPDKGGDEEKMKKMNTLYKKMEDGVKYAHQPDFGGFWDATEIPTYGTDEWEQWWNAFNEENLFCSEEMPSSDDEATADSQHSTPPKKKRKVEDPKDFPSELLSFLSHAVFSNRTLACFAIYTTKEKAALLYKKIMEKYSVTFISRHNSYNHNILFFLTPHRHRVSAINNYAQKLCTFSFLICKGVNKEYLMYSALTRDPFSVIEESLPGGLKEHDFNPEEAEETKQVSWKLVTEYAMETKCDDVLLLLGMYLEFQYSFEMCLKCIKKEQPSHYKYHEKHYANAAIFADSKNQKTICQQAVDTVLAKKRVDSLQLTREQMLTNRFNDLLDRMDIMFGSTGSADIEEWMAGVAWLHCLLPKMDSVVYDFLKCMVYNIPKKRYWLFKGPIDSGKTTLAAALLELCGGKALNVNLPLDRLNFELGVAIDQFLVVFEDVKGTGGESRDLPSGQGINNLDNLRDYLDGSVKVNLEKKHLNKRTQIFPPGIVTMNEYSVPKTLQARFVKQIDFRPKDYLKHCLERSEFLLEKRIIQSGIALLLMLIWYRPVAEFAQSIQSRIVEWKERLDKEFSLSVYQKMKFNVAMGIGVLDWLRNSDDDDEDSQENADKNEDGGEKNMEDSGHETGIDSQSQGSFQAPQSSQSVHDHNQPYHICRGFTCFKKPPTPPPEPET
Induced myeloid leukemia cell differentiation protein Mcl-1, sequence (Q07820 whole entry): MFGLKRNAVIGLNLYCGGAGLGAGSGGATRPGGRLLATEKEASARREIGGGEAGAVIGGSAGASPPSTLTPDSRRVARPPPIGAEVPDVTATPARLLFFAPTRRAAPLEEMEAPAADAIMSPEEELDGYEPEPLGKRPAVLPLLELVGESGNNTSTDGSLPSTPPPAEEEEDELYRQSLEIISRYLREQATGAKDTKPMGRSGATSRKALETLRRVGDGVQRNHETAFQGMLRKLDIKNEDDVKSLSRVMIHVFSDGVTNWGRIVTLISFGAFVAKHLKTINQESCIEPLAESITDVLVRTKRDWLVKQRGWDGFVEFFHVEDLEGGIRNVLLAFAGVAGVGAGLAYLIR
Delta-type opioid receptor, sequence (P41143 whole entry): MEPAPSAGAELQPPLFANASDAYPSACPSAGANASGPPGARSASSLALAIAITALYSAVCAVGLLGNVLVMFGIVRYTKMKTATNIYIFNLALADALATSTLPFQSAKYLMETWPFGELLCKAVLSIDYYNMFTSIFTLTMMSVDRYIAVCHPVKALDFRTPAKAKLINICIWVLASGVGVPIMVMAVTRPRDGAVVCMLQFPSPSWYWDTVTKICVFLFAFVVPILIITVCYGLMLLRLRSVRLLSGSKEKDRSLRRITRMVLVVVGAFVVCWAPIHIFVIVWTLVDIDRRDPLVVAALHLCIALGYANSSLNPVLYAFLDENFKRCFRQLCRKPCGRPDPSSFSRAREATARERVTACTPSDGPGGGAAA
Sphingosine 1-phosphate receptor 2, sequence (O95136 whole entry): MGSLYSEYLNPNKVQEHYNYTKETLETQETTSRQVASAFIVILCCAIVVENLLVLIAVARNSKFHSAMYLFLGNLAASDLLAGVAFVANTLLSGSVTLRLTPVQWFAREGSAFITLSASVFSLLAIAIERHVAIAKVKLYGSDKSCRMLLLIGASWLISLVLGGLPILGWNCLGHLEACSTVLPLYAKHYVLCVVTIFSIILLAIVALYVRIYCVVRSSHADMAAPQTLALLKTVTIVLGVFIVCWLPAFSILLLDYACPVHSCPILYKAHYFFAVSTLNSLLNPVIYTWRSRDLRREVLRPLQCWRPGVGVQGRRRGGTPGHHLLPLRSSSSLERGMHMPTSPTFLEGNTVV

For the compound `Cc1cc(C)c(CSc2nnc(-c3ccccn3)n2Cc2cccs2)c(C)c1`, the EC50 in [1] is > 20 µM (inactive); in assay [2], 9.5 µM (active); in assay [3], > 32 µM (inactive); in assay [4], > 32 µM (inactive).
As to `C/N=C1\SC(=Cc2cc(C)n(Cc3c(F)cccc3F)c2C)C(=O)N1OC`, the EC50 in assay [5] was > 50 µM (inactive); in assay [6], > 50 µM (inactive); in assay [7], 0.113 µM (active); in [8], 0.339 µM (active); in assay [9], 0.0886 µM (active).
As for `O=C(O)CCN1C(=O)/C(=C\c2cccc(OCc3ccccc3)c2)SC1=S`, the values for the EC50 in [10] and in [12] were > 3 µM (inactive) and 1.5 µM (active), respectively. Further, the IC50 in assay [11] was 0.276 µM (active).
On to `O=C1NC(=S)NC(=O)C1=Cc1ccc2c(c1)CCN2CCCCl`, for which the IC50 in assay [13] is 6.63 µM (active); in assay [14], 9.27 µM (active); in assay [15] it was 4.14 µM (active); in assay [16] it was > 54 µM (active); in assay [19], 28.8 µM (active); in assay [21], 2.91 µM (active). Also, the EC50 was 96.3 µM (active) in assay [17], 76.6 µM (active) in assay [18] and 55.5 µM (active) in assay [20].
For `O=C(O)Cc1ccc(O)c(O)c1` [3,4-DIHYDROXYPHENYLACETIC ACID], the figures for the EC50 in assay [22], in assay [17] and in [25] were 28.9 µM (active), > 100 µM (inactive) and 49.8 µM (active), respectively. Moreover, the IC50 in assay [23] was 4.17 µM (active); in [24] it was > 100 µM (inactive).

(Values after ChEMBL document CHEMBL1201862, “PubChem BioAssay data set” (2004).)
